{"source": "paper PMC5609566", "about": "“Elucidation of antimicrobial activity and mechanism of action by N-substituted carbazole derivatives” (Bioorganic & Medicinal Chemistry Letters, 2017)", "key": {"[1]": {"target": "T1, S. cerevisiae H^+-ATPase (Saccharomyces cerevisiae, UniProt P05030)", "T1 construct": "transformed with the full-length cDNA of the S. cerevisiae plasma membrane H^+-ATPase isoform PMA1; made in house; host or cells: S. cerevisiae RS72", "T1 sequence (P05030 whole entry, canonical isoform)": "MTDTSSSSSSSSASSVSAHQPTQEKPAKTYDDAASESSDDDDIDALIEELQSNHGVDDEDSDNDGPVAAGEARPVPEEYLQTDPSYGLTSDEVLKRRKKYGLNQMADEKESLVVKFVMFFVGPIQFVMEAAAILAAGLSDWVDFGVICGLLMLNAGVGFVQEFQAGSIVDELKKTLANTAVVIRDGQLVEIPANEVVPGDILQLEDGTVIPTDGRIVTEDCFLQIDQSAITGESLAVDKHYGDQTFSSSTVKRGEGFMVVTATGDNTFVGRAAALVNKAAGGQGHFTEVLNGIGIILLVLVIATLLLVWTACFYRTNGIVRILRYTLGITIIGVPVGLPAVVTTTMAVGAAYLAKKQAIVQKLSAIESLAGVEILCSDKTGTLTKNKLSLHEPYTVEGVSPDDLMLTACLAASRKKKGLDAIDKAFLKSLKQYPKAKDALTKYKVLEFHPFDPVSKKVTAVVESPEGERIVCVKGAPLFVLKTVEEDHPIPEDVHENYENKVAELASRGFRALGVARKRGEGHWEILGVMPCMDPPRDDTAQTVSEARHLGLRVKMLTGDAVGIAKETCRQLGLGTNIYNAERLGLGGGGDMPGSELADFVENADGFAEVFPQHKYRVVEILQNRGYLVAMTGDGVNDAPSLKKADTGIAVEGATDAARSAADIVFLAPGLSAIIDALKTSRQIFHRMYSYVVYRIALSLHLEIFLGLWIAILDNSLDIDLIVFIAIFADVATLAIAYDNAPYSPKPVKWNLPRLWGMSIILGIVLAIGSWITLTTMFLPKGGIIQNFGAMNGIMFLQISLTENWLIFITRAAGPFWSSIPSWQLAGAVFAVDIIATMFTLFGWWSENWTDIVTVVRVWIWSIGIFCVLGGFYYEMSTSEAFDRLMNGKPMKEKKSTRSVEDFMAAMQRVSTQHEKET", "experiment": "NADH-coupled ATPase assay, initial rate of ATP hydrolysis", "assay_type": "biochemical", "settings": "pH 7, n = 3", "experimental": "To investigate whether the ATPase inhibition observed was due to compound binding at the ATP binding site, three compounds (5, 7, and 10) were selected for further evaluation in an ATPase activity assay on S. cerevisiae H^+-ATPase-containing membranes in presence of increasing ATP concentrations. The initial rate of ATP turnover was measured spectrophotometrically by an NADH-coupled ATPase activity assay that uses phosphoenolpyruvate to regenerate ATP, as described in Møller et al., 1980.[18]\nFig. 5 Kinetics of H^+-ATPase inhibition by carbazole compounds. The initial rate of ATP hydrolysis catalyzed by S. cerevisiae H^+-ATPase was determined by an NADH-coupled ATPase assay, as described in the Supporting Information. The reaction was initiated by the addition of H^+-ATPase-containing membranes (arrows with “H^+-ATPase”) to a pH 7 buffer containing 5 mM ATP. At the indicated times the respective compounds were added to give the final compound concentrations shown in the figure and a final DMSO concentration of 1.1%.\nFig. 6 Compound dependence of the initial rate of H^+-ATPase activity at 1 mM (triangles) or 10 mM (circles) ATP. The initial rates following compound addition deduced from experiments similar to those shown in Fig. 5 were normalized to the maximal rate obtained at 10 mM ATP in the absence of compound (presence of 1.1% DMSO) and plotted as a function of the compound concentration.\nThe initial rate of ATP turnover at RT was measured spectrophotometrically at 340 nm by an NADH-coupled ATPase assay that uses phosphoenolpyruvate to regenerate ATP, as described in Møller et al., 1980^4. The reaction buffer contained 17.5 mM MOPS-NaOH pH 7, 44 mM KNO3, 22 mM NaN3, 0.22 mM Na2MoO4, 1 mM phosphoenolpyruvate, 0.27 mM NADH, 83 µg/ml pyruvate kinase, 22 µg/ml L-lactate dehydrogenase, either 1, 5 or 10 mM ATP, and MgSO4 to give a Mg^2+ concentration of 2 mM in excess over the ATP concentration. The ATPase reaction was initiated by the addition of 0.2-0.3 mg/ml of S. cerevisiae Pma1-containing membranes followed by addition of compound (resulting in a final DMSO concentration of 1.1%)."}, "[2]": {"tested_on": "C. albicans cells", "experiment": "Intracellular ATP determination", "assay_type": "cell-based", "settings": "compound at 20 µM, 30 minutes, mean ± SEM n = 5", "text": "(§1) It was subsequently evaluated whether or not the carbazoles were able to prevent extracellular acidification of the surrounding media by blocking the pumping activity of the H^+-ATPase within fungal cells.[15] […] The H^+-ATPase requires ATP to transport protons out of fungal cells. Consequently, a decrease in intracellular ATP (iATP) levels will indirectly affect H^+-ATPase activity. […] In all cases, iATP levels were […] in C. albicans cells exposed to carbazoles compared to the untreated control. […] This implies that the carbazoles need to pass the fungal membrane to inhibit the H^+-ATPase and 7, 18 and 19 may have reduced membrane permeability.\nC. albicans cells were transferred to 3 ml of YPD media and grown overnight at 30 °C and 150 rpm. The cells were pelleted at 2000 × g for 2 min. and washed in PBS (Sigma-Aldrich, catalog number 8537) twice before re-suspension to an OD600 of 0.1. Cell suspension (98 µL) and 2 µl compound in DMSO were incubated for 30 minutes at RT. Forty microliters of this suspension was then transferred to a black 96-well plate containing 40 µl BacTiterGlo reagent (Promega, Madison, WI) and the plate was incubated for 15 minutes in the dark at room temperature. Luminescence was read on a SpectraMax X5 (Molecular Devices, Sunnyvale, CA) plate reader with 10 s shake and 0.5 s integration time. A standard curve containing 10, 100 and 1000 nM ATP was prepared for every experiment."}, "[3]": {"tested_on": "C. albicans", "experiment": "Extracellular acidification assay", "assay_type": "cell-based", "settings": "Candida albicans, mean ± SEM n = 3", "text": "as §1\n(§2) The ability of S. cerevisiae and C. albicans to acidify the media upon glucose addition was evaluated using the pH sensor dextran (40,000MW)-fluorescein-isothiocyanate as described in Kjellerup et al., 2017^6. Briefly, the cells was starved overnight in 50 mM KCl, pH 6.7 at 4 °C. The cell suspension (Final OD600 of 0.19) was mixed with 1.3 µg/ml dextran (40,000MW)-fluorescein-isothiocyanate, 1.5 % DMSO containing inhibitors and the assay initiated with the addition of 2 % D-(+)-glucose. The rate of media acidification was calculated based on the slope of the fluorescent drop in the first 12 minutes after glucose addition."}, "[4]": {"tested_on": "S. cerevisiae", "experiment": "Extracellular acidification assay", "assay_type": "cell-based", "settings": "Saccharomyces cerevisiae, mean ± SEM n = 3", "text": "as §1, §2"}, "[5]": {"tested_on": "C. albicans (SC5314)", "experiment": "Time-kill assay", "assay_type": "cell-based", "experimental": "(§3) Time-kill studies were carried out to investigate whether the antifungal activity observed for 10 was fungistatic or fungicidal. Given the essential nature of fungal H^+-ATPase, it is anticipated that compounds targeting H^+-ATPase activity will promote fungicidal effects.[21]\n(§4) Fig. 7 Time-kill data for C. albicans and C. glabrata cells (1 × 10^5 CFU/ml) incubated with DMSO (final concentration 1%), 1 µM AMB, and 5 or 10 µM of compound 10.\n(§5) C. albicans (SC5314) and C. glabrata (ATCC 90030) cells (1 x 10^5 CFU/ml) were incubated in 10 mL RPMI media at 30 °C with gentle agitation (150 rpm) in the presence of amphotericin B (1 µM) or compound 10 at a concentration of 5 or 10 µM. At the indicated time points (0, 1, 3, 5 and 24 h at 30 °C incubation, 150 rpm), 100-μL aliquots were removed, serially diluted (10-fold) in saline (0.9% NaCl), and plated on YPD agar plates. The resulting CFUs were enumerated after incubation at 30 °C for 48 h. Cells treated with DMSO (1%, v/v) served as a control."}, "[6]": {"tested_on": "C. glabrata (ATCC 90030)", "experiment": "Time-kill assay", "assay_type": "cell-based", "experimental": "as §3, §4, §5"}, "[7]": {"tested_on": "Pseudomonas aeruginosa", "set-up": "method as in PMID 25453797, PMID 27167126", "settings": "cited from earlier work"}}}
{"compound": "OC(Cn1ccnc1)Cn1c2ccc(Cl)cc2c2cc(Cl)ccc21", "note": "(centres unmarked) [Compound 5, 1-(3,6-dichloro-9H-carbazol-9-yl)-3-(1H-imidazol-1-yl)propan-2-ol]", "values": [{"measurement": "IC50", "setting": "[1]; 1 mM ATP", "value": "78 ± 14.9", "unit": "µM"}, {"measurement": "IC50", "setting": "[1]; 10 mM ATP", "value": "60 ± 14.2", "unit": "µM"}]}
{"compound": "OC(CN1CCOCC1)Cn1c2ccc(Cl)cc2c2cc(Cl)ccc21", "note": "(centres unmarked) [Compound 7, 1-(3,6-dichloro-9H-carbazol-9-yl)-3-morpholinopropan-2-ol]", "values": [{"measurement": "IC50", "setting": "[1]; 1 mM ATP", "value": "29.7 ± 6.7", "unit": "µM"}, {"measurement": "IC50", "setting": "[1]; 10 mM ATP", "value": "16.8 ± 1.7", "unit": "µM"}, {"measurement": "iATP", "setting": "[2]", "value": "93 ± 45", "unit": "nM"}, {"measurement": "IC50", "setting": "[3]", "value": "22.2 ± 12.9", "unit": "µM"}, {"measurement": "IC50", "setting": "[4]", "value": "33.3 ± 0.6", "unit": "µM"}]}
{"compound": "CN1CCN(CC(O)Cn2c3ccc(Cl)cc3c3cc(Cl)ccc32)CC1", "note": "(centres unmarked) [Compound 8, 1-(3,6-dichloro-9H-carbazol-9-yl)-3-(4-methylpiperazin-1-yl)propan-2-ol]", "values": [{"measurement": "iATP", "setting": "[2]", "value": "70 ± 25", "unit": "nM"}, {"measurement": "IC50", "setting": "[3]", "value": "9.7 ± 6.8", "unit": "µM"}, {"measurement": "IC50", "setting": "[4]", "value": "11.1 ± 2.1", "unit": "µM"}]}
{"compound": "CCC(C)NCC(O)Cn1c2ccc(Cl)cc2c2cc(Cl)ccc21", "note": "(centres unmarked) [Compound 10, 1-(sec-butylamino)-3-(3,6-dichloro-9H-carbazol-9-yl)propan-2-ol]", "values": [{"measurement": "IC50", "setting": "[1]; 1 mM ATP", "value": "4.5 ± 0.5", "unit": "µM"}, {"measurement": "IC50", "setting": "[1]; 10 mM ATP", "value": "6.3 ± 1.2", "unit": "µM"}, {"measurement": "exposure time after which fungicidal activity was evident", "setting": "[5]; 10 µM", "value": 1, "unit": "h"}, {"measurement": "time-kill outcome (fungistatic or fungicidal)", "setting": "[5]; 5 or 10 µM, versus 1 µM AMB", "value": "cell death comparable to that observed for amphotericin B"}, {"measurement": "exposure time after which fungicidal activity was evident", "setting": "[6]; C. glabrata", "value": 3, "unit": "h"}, {"measurement": "time-kill outcome (fungistatic or fungicidal)", "setting": "[6]; wild-type C. glabrata, 5 or 10 µM, versus 1 µM AMB", "value": "cell death comparable to that observed for amphotericin B"}, {"measurement": "iATP", "setting": "[2]", "value": "491 ± 79", "unit": "nM"}, {"measurement": "IC50", "setting": "[3]", "value": "2.4 ± 1.2", "unit": "µM"}, {"measurement": "IC50", "setting": "[4]", "value": "2.1 ± 1", "unit": "µM"}, {"measurement": "activity in bacteria reported previously", "setting": "[7]", "value": "membrane damaging activity"}]}
{"compound": "CN(C)CCCCn1c2ccc(Cl)cc2c2cc(Cl)ccc21", "note": "[Compound 15]", "values": [{"measurement": "iATP", "setting": "[2]", "value": "53 ± 10", "unit": "nM"}, {"measurement": "IC50", "setting": "[3]", "value": "13.1 ± 7.2", "unit": "µM"}, {"measurement": "IC50", "setting": "[4]", "value": "16.2 ± 2.6", "unit": "µM"}]}
{"compound": "CN1CCN(CCCn2c3ccc(Cl)cc3c3cc(Cl)ccc32)CC1", "note": "[Compound 16, 3,6-dichloro-9-(3-(4-methylpiperazin-1-yl)propyl)-9H-carbazole]", "values": [{"measurement": "iATP", "setting": "[2]", "value": "235 ± 70", "unit": "nM"}, {"measurement": "IC50", "setting": "[3]", "value": "9.5 ± 2.5", "unit": "µM"}, {"measurement": "IC50", "setting": "[4]", "value": "7.3 ± 0.4", "unit": "µM"}]}
